We go through three compounds from US5508413A, “(+)-5-isopropyl 3-methyl 2-cyano-6 methyl-4-(3-nitrophenyl)-1, 4-dihydropyridine-3, 5-dicarboxylate” (priority 1991, dated 1996).

In brackets after ≈: the same amount, converted by molar mass.

The subject of data set [1] is Anesthetized Dogs. As to the kind of experiment: Measurement of Arterial Blood Pressure in Anesthetized Dogs. It is filed as in vivo, Mongrel dogs. As to conditions: for blood pressure / ratio of blood pressure change as compared to the normal blood pressure: anesthetized dogs. As for the experimental part: [A] Measurement of Arterial Blood Pressure in Anesthetized Dogs
Mongrel dogs weighing 11.8 to 19.0 kg were used. The dogs were anesthetized by intraperitoneal injection of pentobarbital sodium (35 mg/kg). The blood pressure was measured with a pressure transducer in the left femoral artery. The values of blood pressure were recorded on a polygraph. The right femoral vein was cannulated and the cumulative dose (0.01, 0.032, 0.1, 0.32, 1, 3.2, 10, 32 and 100 μg/kg) of the solution of Test Compounds dissolved in a mixture of polyethylene glycol, ethanol and water was intravenously injected in a volume of 0.2 ml/kg.
The values of blood pressure were shown in the following table with an expression of mm/Hg.
note: The values of the parentheses mean the ratio of blood pressure
change (%) in each dose as compared to the normal blood pressure.

For data set [2] the following is noted: background statement; cited from earlier work.
Data set [3] can be described thus: Solubility Test (in water at ambient temperature). As to conditions: for solubility: in water, ambient temperature. It is filed as physicochemical. As for the experimental part:
[B] Solubility Test Test Method Solubility of Test Compound A and Nilvadipine in water was measured at ambient temperature.

For data set [4] the following is noted: orally administered; background statement; cited from earlier work.
[5] abbreviates: cumulative i.v. dose 0.32 μg/kg.
The mark [6] stands for this setting: as compared to its optically inactive racemate, Nilvadipine.

With `COC(=O)C1=C(C#N)NC(C)=C(C(=O)OC(C)C)C1c1cccc([N+](=O)[O-])c1` (racemic) [Nilvadipine, (±)-5-isopropyl 3-methyl 2-cyano-6-methyl-4-(3-nitrophenyl)-1,4-dihydropyridine-3,5-dicarboxylate], the blood pressure in data set [1] (setting [5]) amounted to 104 ± 6 mm/Hg; in data set [1] (cumulative i.v. dose 1 μg/kg), 103 ± 5 mm/Hg; in data set [1] (cumulative i.v. dose 3.2 μg/kg) it was 100 ± 4 mm/Hg; in data set [1] (cumulative i.v. dose 10 μg/kg), 90 ± 3 mm/Hg; in data set [1] (cumulative i.v. dose 32 μg/kg) it was 83 ± 5 mm/Hg; in data set [1] (cumulative i.v. dose 100 μg/kg), 65 ± 6 mm/Hg. Besides, the “ratio of blood pressure change as compared to the normal blood pressure” value in data set [1] (setting [5]) is “+6 ± 1%”; in data set [1] (cumulative i.v. dose 1 μg/kg), “+5 ± 1%”; in data set [1] (cumulative i.v. dose 3.2 μg/kg), -3 ± 2%; in data set [1] (cumulative i.v. dose 10 μg/kg), -7 ± 5%; in data set [1] (cumulative i.v. dose 32 μg/kg) it was -15 ± 6%; in data set [1] (cumulative i.v. dose 100 μg/kg), -34 ± 6%. For the same compound, in data set [2], the “solubility in water (in words)” value is “only slightly soluble in water”. Further, the concentration in solution in data set [3] (solubility) was 0.6 µg/mL (≈ 1.56 µM). Further, the “absorbability of said drug into a body (in words)” value in data set [4] is “not so good”.
For the compound `COC(=O)C1=C(C#N)NC(C)=C(C(=O)OC(C)C)C1c1cccc([N+](=O)[O-])c1` (single isomer, unassigned; (+)) [Test Compound A, (+)-5-isopropyl 3-methyl 2-cyano-6-methyl-4-(3-nitrophenyl)-1,4-dihydropyridine-3,5-dicarboxylate], the blood pressure is on record as 117 ± 6 mm/Hg in data set [1] (setting [5]); 114 ± 6 mm/Hg in data set [1] (cumulative i.v. dose 1 μg/kg); 101 ± 7 mm/Hg in data set [1] (cumulative i.v. dose 3.2 μg/kg); 74 ± 6 mm/Hg in data set [1] (cumulative i.v. dose 10 μg/kg); 64 ± 7 mm/Hg in data set [1] (cumulative i.v. dose 32 μg/kg); 58 ± 6 mm/Hg in data set [1] (cumulative i.v. dose 100 μg/kg). The “ratio of blood pressure change as compared to the normal blood pressure” value is reported as -2 ± 1% in data set [1] (setting [5]); -5 ± 1% in data set [1] (cumulative i.v. dose 1 μg/kg); -16 ± 2% in data set [1] (cumulative i.v. dose 3.2 μg/kg); -39 ± 2% in data set [1] (cumulative i.v. dose 10 μg/kg); -47 ± 4% in data set [1] (cumulative i.v. dose 32 μg/kg); -52 ± 3% in data set [1] (cumulative i.v. dose 100 μg/kg). The solubility (in general, the concentration that dissolves in the medium under given conditions) in data set [3] was 4.7 µg/mL (≈ 12.2 µM).
`COC(=O)C1=C(C#N)NC(C)=C(C(=O)OC(C)C)C1c1cccc([N+](=O)[O-])c1` (single isomer, unassigned; (+)) [(+)-5-isopropyl 3-methyl 2-cyano-6-methyl-4-(3-nitrophenyl)-1,4-dihydropyridine-3,5-dicarboxylate]: the “hypotensive and vasodilating activities (in words)” value in data set [1] (setting [6]) was “much stronger and more lasting hypotensive and vasodilating activities”. Moreover, the “solubility (in words)” value in data set [3] (setting [6]) is on record as “higher solubility”.
